Data reported in ChEMBL document CHEMBL2073883, “Interaction of docetaxel ("Taxotere") with human P-glycoprotein” (Jpn J Cancer Res, 1999).

Biological target: ATP-dependent translocase ABCB1 (Homo sapiens, UniProt P08183)
Experiment: TP_TRANSPORTER: transepithelial transport (basal to apical) in MDR1-expressing LLC-PK1 cells
Assay type: functional, cell-based
Settings: pig

ATP-dependent translocase ABCB1, sequence (P08183 whole entry): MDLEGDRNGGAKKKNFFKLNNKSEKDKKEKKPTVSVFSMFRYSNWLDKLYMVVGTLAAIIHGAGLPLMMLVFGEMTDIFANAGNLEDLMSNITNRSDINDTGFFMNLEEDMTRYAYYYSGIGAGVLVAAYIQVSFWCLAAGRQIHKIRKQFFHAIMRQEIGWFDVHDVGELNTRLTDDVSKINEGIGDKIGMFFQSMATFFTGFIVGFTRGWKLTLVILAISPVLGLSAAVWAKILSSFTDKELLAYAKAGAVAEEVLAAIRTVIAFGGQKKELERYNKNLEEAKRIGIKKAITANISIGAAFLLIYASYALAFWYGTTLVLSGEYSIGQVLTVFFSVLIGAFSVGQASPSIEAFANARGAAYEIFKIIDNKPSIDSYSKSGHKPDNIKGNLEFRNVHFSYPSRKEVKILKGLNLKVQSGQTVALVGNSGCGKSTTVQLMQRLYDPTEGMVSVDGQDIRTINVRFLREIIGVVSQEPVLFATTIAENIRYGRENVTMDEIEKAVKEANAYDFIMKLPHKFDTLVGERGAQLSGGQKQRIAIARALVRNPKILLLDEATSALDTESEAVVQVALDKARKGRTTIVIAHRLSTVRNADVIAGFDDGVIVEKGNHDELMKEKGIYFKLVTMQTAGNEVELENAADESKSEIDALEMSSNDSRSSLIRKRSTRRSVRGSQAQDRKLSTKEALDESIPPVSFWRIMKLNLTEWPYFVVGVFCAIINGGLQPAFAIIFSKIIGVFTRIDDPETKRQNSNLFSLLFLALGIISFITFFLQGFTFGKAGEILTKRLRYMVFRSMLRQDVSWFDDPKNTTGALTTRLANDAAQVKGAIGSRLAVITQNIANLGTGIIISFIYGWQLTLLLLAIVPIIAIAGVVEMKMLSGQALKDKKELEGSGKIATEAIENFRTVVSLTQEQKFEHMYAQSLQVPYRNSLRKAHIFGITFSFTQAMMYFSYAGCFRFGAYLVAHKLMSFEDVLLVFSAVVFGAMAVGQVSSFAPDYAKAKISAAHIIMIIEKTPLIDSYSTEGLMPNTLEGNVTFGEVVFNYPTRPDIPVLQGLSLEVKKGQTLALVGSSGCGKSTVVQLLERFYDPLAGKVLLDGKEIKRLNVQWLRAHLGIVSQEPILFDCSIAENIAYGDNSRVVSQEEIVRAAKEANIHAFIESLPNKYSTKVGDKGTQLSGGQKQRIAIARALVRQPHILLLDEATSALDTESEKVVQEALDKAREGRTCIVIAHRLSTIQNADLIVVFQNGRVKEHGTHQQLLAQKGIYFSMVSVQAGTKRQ

Activity: substrate [+]
SMILES: CC(=O)O[C@@]12CO[C@@H]1C[C@H](O)[C@@]1(C)C(=O)[C@H](O)C3=C(C)[C@@H](OC(=O)[C@H](O)[C@@H](NC(=O)OC(C)(C)C)c4ccccc4)C[C@@](O)([C@@H](OC(=O)c4ccccc4)[C@H]21)C3(C)C.O.O.O [DOCETAXEL]
